The test has as its system Myotonic Dystrophy 1 affected patient fibroblasts (Coriell GM04602; 1600 CTG repeats). Description: DM1 foci reduction assay (CAG10-Cy3 FISH, average foci per nucleus). The format is cell-based. The settings on record: Homo sapiens, Fibroblast. An outline of the steps:
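DM1 patient fibroblasts (GM04602, 1600 CTG) treated 48 h at 37 °C, 8-point 1:3 dilutions from 3 μM top dose; wild-type GM07492 as control. PFA-fixed, ethanol-permeabilized cells hybridized overnight with 5 nM CAG10-Cy3 probe, DAPI-counterstained, imaged at 20× in 4 fields; average foci per nucleus per well.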

The mark [1] stands for this setting: 48 h, read-out: Foci Reduction in Fibroblast EC50, 48 h (nM).
Where [2] appears, read: DM1 fibroblasts, 48 h treatment, 8-point dose response, 3 μM top dose, read-out: Foci Reduction in Fibroblast EC50, 48 h.

Read-outs that look alike come from different tables or passages of the source.

Take `CCN(CC)CCCC[C@H](NC(=O)[C@H](CC(C)C)NC(=O)[C@H](C)NC(=O)[C@H](Cc1ccccc1)NC(=O)c1ccc(C(C)(C)C)cc1)C(=O)N[C@@H](CO)C(=O)NCCOCCOCCOCCOCCOCCNC(=O)c1cc(NC(=O)c2nc(NC(=O)c3cc(NC(=O)[C@H](CCNC(=O)c4nc(NC(=O)CCNC(=O)c5cc(NC(=O)c6nccn6C)cn5C)cn4C)NC(C)=O)cn3C)cn2C)cn1C` [Compound 117]: the EC50 under setting [1] was > 500 nM.

With `CC(C)C[C@H](NC(=O)[C@H](C)NC(=O)[C@H](Cc1ccccc1)NC(=O)c1ccc(C(C)(C)C)cc1)C(=O)N[C@@H](CCCCN(C)C1CC2CCC1C2)C(=O)N[C@@H](CO)C(=O)NCCOCCOCCNC(=O)c1cc(NC(=O)c2cc(NC(=O)c3nc(NC(=O)c4cc(NC(=O)[C@@H](N)CCNC(=O)c5nc(NC(=O)c6cc(NC(=O)c7cc(NC(=O)c8nccn8C)cn7C)cn6C)cn5C)cn4C)cn3C)cn2C)cn1C` (stereo partly shown) [Compound 118], the concentration giving a half-maximal response (EC50) under setting [1] is > 500 nM.

For `CC(C)C[C@H](NC(=O)[C@H](C)NC(=O)[C@H](Cc1ccccc1)NC(=O)c1ccc(C(C)(C)C)cc1)C(=O)N[C@@H](CCCCN(C)C1CC2CCC1C2)C(=O)N[C@@H](CO)C(=O)NCCOCCOCCOCCOCCOCCOCCOCCOCCOCCOCCNC(=O)c1cc(NC(=O)c2cc(NC(=O)c3nc(NC(=O)c4cc(NC(=O)[C@@H](N)CCNC(=O)c5nc(NC(=O)c6cc(NC(=O)c7cc(NC(=O)c8nccn8C)cn7C)cn6C)cn5C)cn4C)cn3C)cn2C)cn1C` (stereo partly shown) [Compound 119], the EC50 under setting [1] was > 500 nM.

On to `Cn1cc(NC(=O)c2cc(NC(=O)c3nc(NC(=O)c4cc(NC(=O)[C@@H](N)CCNC(=O)c5nc(NC(=O)CCNC(=O)c6cc(NC(=O)c7nccn7C)cn6C)cn5C)cn4C)cn3C)cn2C)cc1C(=O)NCCOCCOCCOCCOCCOCCN1CCC(C(=O)Nc2ncc(SCc3ncc(C(C)(C)C)o3)s2)CC1` [Compound 120], for which the EC50 under setting [2] is > 500 nM.

Turning to `Cn1cc(NC(=O)c2cc(NC(=O)c3nc(NC(=O)c4cc(NC(=O)[C@@H](N)CCNC(=O)c5nc(NC(=O)CCNC(=O)c6cc(NC(=O)c7nccn7C)cn6C)cn5C)cn4C)cn3C)cn2C)cc1C(=O)NCCOCCOCCOCCOCCOCCOCCOCCOCCOCCOCCOCCOCCOCCOCCOCCN1CCC(C(=O)Nc2ncc(SCc3ncc(C(C)(C)C)o3)s2)CC1` [Compound 121], the EC50 under setting [2] was > 500 nM.

For the molecule `CC(C)c1cnn2c(NCc3ccc(OCCOCCOCCOCCOCCOCCNC(=O)c4cc(NC(=O)c5cc(NC(=O)c6nc(NC(=O)c7cc(NC(=O)[C@@H](N)CCNC(=O)c8nc(NC(=O)CCNC(=O)c9cc(NC(=O)c%10nccn%10C)cn9C)cn8C)cn7C)cn6C)cn5C)cn4C)cc3-n3cccn3)nc(OC3CCCNC3)nc12` (stereo partly shown) [Compound 122], the 50% effective concentration (EC50) under setting [2] is > 500 nM.

In the case of `Cn1cc(NC(=O)c2nc(NC(=O)CCNC(=O)c3cc(NC(=O)c4nccn4C)cn3C)cn2C)cc1C(=O)NCCCC(=O)Nc1cn(C)c(C(=O)NCCC(=O)Nc2cc(C(=O)Nc3cn(C)c(C(=O)NCCC(=O)NCCOCCOCCn4cc(CC(=O)Nc5ccc(C(=O)Nc6ccccc6N)cc5)nn4)n3)n(C)c2)n1` [Compound 123], the EC50 under setting [2] is > 500 nM.

Regarding `Cn1cc(NC(=O)c2nc(NC(=O)CCNC(=O)c3cc(NC(=O)c4nccn4C)cn3C)cn2C)cc1C(=O)NCCCC(=O)Nc1cn(C)c(C(=O)NCCC(=O)Nc2cc(C(=O)Nc3cn(C)c(C(=O)NCCC(=O)NCCOCCOCCOCCOCCOCCOCCn4cc(CC(=O)Nc5ccc(C(=O)Nc6ccccc6N)cc5)nn4)n3)n(C)c2)n1` [Compound 124], under setting [2], the EC50 is > 500 nM.

Regarding `Cn1cc(NC(=O)c2nc(NC(=O)CCNC(=O)c3cc(NC(=O)c4nccn4C)cn3C)cn2C)cc1C(=O)NCCCC(=O)Nc1cn(C)c(C(=O)NCCC(=O)Nc2cc(C(=O)Nc3cn(C)c(C(=O)NCCC(=O)NCCOCCOCCn4cc(CCCCN(Cc5ccc(C(=O)NO)cc5)C(=O)Nc5ccccc5)nn4)n3)n(C)c2)n1` [Compound 125], the EC50 under setting [2] is > 500 nM.

As to `Cn1cc(NC(=O)c2nc(NC(=O)CCNC(=O)c3cc(NC(=O)c4nccn4C)cn3C)cn2C)cc1C(=O)NCCCC(=O)Nc1cn(C)c(C(=O)NCCC(=O)Nc2cc(C(=O)Nc3cn(C)c(C(=O)NCCC(=O)NCCOCCOCCOCCOCCOCCOCCn4cc(CCCCN(Cc5ccc(C(=O)NO)cc5)C(=O)Nc5ccccc5)nn4)n3)n(C)c2)n1` [Compound 126], the EC50 under setting [2] is > 500 nM.

With `CCCCN(Cc1ccc(C(=O)NO)cc1)C(=O)Nc1ccc(OCc2cn(CCOCCOCCNC(=O)CCNC(=O)c3nc(NC(=O)c4cc(NC(=O)CCNC(=O)c5nc(NC(=O)CCCNC(=O)c6cc(NC(=O)c7nc(NC(=O)CCNC(=O)c8cc(NC(=O)c9nccn9C)cn8C)cn7C)cn6C)cn5C)cn4C)cn3C)nn2)cc1` [Compound 127], the EC50 under setting [2] is > 500 nM.

As to `CCCCN(Cc1ccc(C(=O)NO)cc1)C(=O)Nc1ccc(OCc2cn(CCOCCOCCOCCOCCOCCOCCNC(=O)CCNC(=O)c3nc(NC(=O)c4cc(NC(=O)CCNC(=O)c5nc(NC(=O)CCCNC(=O)c6cc(NC(=O)c7nc(NC(=O)CCNC(=O)c8cc(NC(=O)c9nccn9C)cn8C)cn7C)cn6C)cn5C)cn4C)cn3C)nn2)cc1` [Compound 128], the EC50 under setting [2] was > 500 nM.

Regarding `Cn1cc(NC(=O)c2nc(NC(=O)CCNC(=O)c3cc(NC(=O)c4nccn4C)cn3C)cn2C)cc1C(=O)NCCCC(=O)Nc1cn(C)c(C(=O)NCCC(=O)Nc2cc(C(=O)Nc3cn(C)c(C(=O)NCCC(=O)NCCOCCOCCOCCOCCOCCOc4ccc(NC(=O)CCCCCCC(=O)NO)cc4)n3)n(C)c2)n1` [Compound 129, N-hydroxy-N′-{4-[(17-{3-[(1-methyl-4-{1-methyl-4-[3-({1-methyl-4-[4-({1-methyl-4-[1-methyl-4-(3-{[1-methyl-4-(1-methylimidazole-2-amido)pyrrol-2-yl]formamido}propanamido)imidazole-2-amido]pyrrol-2-yl}formamido)butanamido]imidazol-2-yl}formamido)propanamido]pyrrole-2-amido}imidazol-2-yl)formamido]propanamido}-3,6,9,12,15-pentaoxaheptadecan-1-yl)oxy]phenyl}octanediamide], the EC50 under setting [2] was > 500 nM.

On to `CCN(CC)CCCC[C@H](NC(=O)[C@H](CC(C)C)NC(=O)[C@H](C)NC(=O)[C@H](Cc1ccccc1)NC(=O)c1ccc(C(C)(C)C)cc1)C(=O)N[C@@H](CO)C(=O)NCCOCCOCCOCCOCCOCCNC(=O)c1cc(NC(=O)c2nc(NC(=O)CCNC(=O)c3cc(NC(=O)c4nc(NC(=O)CCCNC(=O)c5cc(NC(=O)c6nc(NC(=O)CCNC(=O)c7cc(NC(=O)c8nccn8C)cn7C)cn6C)cn5C)cn4C)cn3C)cn2C)cn1C` [Compound 130], for which the concentration for a half-maximal effect (EC50) under setting [1] is < 100 nM.

As for `CCN(CC)CCCC[C@H](NC(=O)[C@H](CC(C)C)NC(=O)[C@H](C)NC(=O)[C@H](Cc1ccccc1)NC(=O)c1ccc(C(C)(C)C)cc1)C(=O)N[C@@H](CO)C(=O)NCCOCCOCCOCCOCCOCCNC(=O)c1cc(NC(=O)c2nc(NC(=O)CCNC(=O)c3cc(NC(=O)c4nc(NC(=O)[C@H](CCNC(=O)c5cc(NC(=O)c6nc(NC(=O)CCNC(=O)c7cc(NC(=O)c8nccn8C)cn7C)cn6C)cn5C)NC(C)=O)cn4C)cn3C)cn2C)cn1C` [Compound 132], under setting [1], the EC50 is < 100 nM.

As to `CCCNC(=O)c1cc(NC(=O)c2nc(NC(=O)CCNC(=O)c3cc(NC(=O)c4nc(NC(=O)[C@@H](CCNC(=O)c5cc(NC(=O)c6nc(NC(=O)CCNC(=O)c7cc(NC(=O)c8nccn8C)cn7C)cn6C)cn5C)NC(=O)COCCOCCOCCOCCOCCNC(=O)[C@H](CO)NC(=O)[C@H](CCCCN(CC)CC)NC(=O)[C@H](CC(C)C)NC(=O)[C@H](C)NC(=O)[C@H](Cc5ccccc5)NC(=O)c5ccc(C(C)(C)C)cc5)cn4C)cn3C)cn2C)cn1C` [Compound 133], the EC50 under setting [1] lay in the range of 100 to 500 nM.

The values are drawn from patent US20240166693A1, “METHODS AND COMPOUNDS FOR MODULATING MYOTONIC DYSTROPY 1” (Design Therapeutics, Inc., priority 2020, published 2024).
